Reference: the supplement of paper PMC10307832

What was measured:
Test in all cases: relative viability (nuclei count vs DMSO), 5 days (fraction); higher = more cells survive
[1] = system: LK-2
Procedure, shortened: (§1)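 Relative viability was taken as the ratio of nuclei in treated wells to nuclei in vehicle wells. Lung cancer cell lines in 1536-well plates received compounds by pin tool one day after seeding, either one drug alone or a fixed anchor-drug dose plus five library-drug doses (not always all listed) in √10 steps. Nuclei were counted on 4× images after 5 days of treatment, and values are medians of duplicate plates.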

[2] = system: NCI-H2405
Procedure, shortened: as §1

[3] = system: HOP-62
Procedure, shortened: as §1

[4] = system: SK-MES-1
Procedure, shortened: as §1

[5] = system: HCC-78
Procedure, shortened: as §1

[6] = system: BEN
Procedure, shortened: as §1

[7] = system: NCI-H1993
Procedure, shortened: as §1

[8] = system: HCC-366
Procedure, shortened: as §1

[9] = system: NCI-H460
Procedure, shortened: as §1

[10] = system: COR-L 105
Procedure, shortened: as §1

[11] = system: EMC-BAC-2
Procedure, shortened: as §1

[12] = system: NCI-H661
Procedure, shortened: as §1

[13] = system: NCI-H1563
Procedure, shortened: as §1

[14] = system: NCI-H647
Procedure, shortened: as §1

[15] = system: NCI-H1734
Procedure, shortened: as §1

[16] = system: PC-14
Procedure, shortened: as §1

[17] = system: A-427
Procedure, shortened: as §1

[18] = system: 201T
Procedure, shortened: as §1

[19] = system: HCC-15
Procedure, shortened: as §1

[20] = system: NCI-H1915
Procedure, shortened: as §1

[21] = system: COR-L23
Procedure, shortened: as §1

[22] = system: EKVX
Procedure, shortened: as §1

For `CN1CCN(CCOc2cc(OC3CCOCC3)c3c(Nc4c(Cl)ccc5c4OCO5)ncnc3c2)CC1` [Saracatinib] + CS(=O)(=O)N1CCN(Cc2cc3nc(-c4cccc5[nH]ncc45)nc(N4CCOCC4)c3s2)CC1 [Pictilisib] (partner 1 µM), the relative viability ([1]; first compound 0.02 µM) was 0.563, the relative viability ([1]; first compound 0.2 µM) was 0.316 and the relative viability ([1]; first compound 0.6325 µM) was 0.413. For the same compound, the relative viability ([1]; first compound 2 µM) was 0.302, the relative viability ([2]; first compound 0.02 µM) was 0.441 and the relative viability ([2]; first compound 0.2 µM) was 0.366. It also gave a relative viability ([2]; first compound 0.6325 µM) of 0.352, a relative viability ([2]; first compound 2 µM) of 0.22 and a relative viability ([3]; first compound 0.02 µM) of 0.548. The relative viability ([3]; first compound 0.2 µM) was 0.685, the relative viability ([3]; first compound 0.6325 µM) was 1.05 and the relative viability ([3]; first compound 2 µM) was 0.605. The relative viability ([4]; first compound 0.02 µM) was 0.375, the relative viability ([4]; first compound 0.2 µM) was 0.256 and the relative viability ([4]; first compound 0.6325 µM) was 0.267. The relative viability ([4]; first compound 2 µM) was 0.183, the relative viability ([5]; first compound 0.02 µM) was 0.242 and the relative viability ([5]; first compound 0.2 µM) was 0.154. The relative viability ([5]; first compound 0.6325 µM) was 0.178, the relative viability ([5]; first compound 2 µM) was 0.21 and the relative viability ([6]; first compound 0.02 µM) was 0.57. The relative viability ([6]; first compound 0.2 µM) was 0.56, the relative viability ([6]; first compound 0.6325 µM) was 0.573 and the relative viability ([6]; first compound 2 µM) was 0.427. It also gave a relative viability ([7]; first compound 0.02 µM) of 0.655, a relative viability ([7]; first compound 0.2 µM) of 0.969 and a relative viability ([7]; first compound 2 µM) of 0.652. It also gave a relative viability ([8]; first compound 0.02 µM) of 0.132, a relative viability ([8]; first compound 0.2 µM) of 0.151 and a relative viability ([8]; first compound 0.6325 µM) of 0.107. The relative viability ([8]; first compound 2 µM) was 0.103, the relative viability ([9]; first compound 0.02 µM) was 0.367 and the relative viability ([9]; first compound 0.6325 µM) was 0.242. The relative viability ([9]; first compound 2 µM) was 0.286, the relative viability ([10]; first compound 0.02 µM) was 0.445 and the relative viability ([10]; first compound 0.2 µM) was 0.331. For the same compound, the relative viability ([10]; first compound 0.6325 µM) was 0.361, the relative viability ([10]; first compound 2 µM) was 0.244 and the relative viability ([11]; first compound 0.02 µM) was 0.546. The relative viability ([11]; first compound 0.2 µM) was 0.507, the relative viability ([11]; first compound 0.6325 µM) was 0.497 and the relative viability ([11]; first compound 2 µM) was 0.34. The relative viability ([12]; first compound 0.02 µM) was 0.452, the relative viability ([12]; first compound 0.2 µM) was 0.271 and the relative viability ([12]; first compound 0.6325 µM) was 0.314. For the same compound, the relative viability ([12]; first compound 2 µM) was 0.241, the relative viability ([13]; first compound 0.02 µM) was 0.618 and the relative viability ([13]; first compound 0.2 µM) was 0.609. It also gave a relative viability ([13]; first compound 0.6325 µM) of 0.63, a relative viability ([13]; first compound 2 µM) of 0.606 and a relative viability ([14]; first compound 0.02 µM) of 0.386. The relative viability ([14]; first compound 0.2 µM) was 0.387, the relative viability ([14]; first compound 0.6325 µM) was 0.425 and the relative viability ([14]; first compound 2 µM) was 0.216. For the same compound, the relative viability ([15]; first compound 0.02 µM) was 0.475, the relative viability ([15]; first compound 0.6325 µM) was 0.435 and the relative viability ([15]; first compound 2 µM) was 0.387. The relative viability ([16]; first compound 0.02 µM) was 0.593, the relative viability ([16]; first compound 0.2 µM) was 0.337 and the relative viability ([16]; first compound 0.6325 µM) was 0.0893. For the same compound, the relative viability ([16]; first compound 2 µM) was 0.0627, the relative viability ([17]; first compound 0.02 µM) was 0.652 and the relative viability ([17]; first compound 0.2 µM) was 0.571. It also gave a relative viability ([17]; first compound 0.6325 µM) of 0.767, a relative viability ([17]; first compound 2 µM) of 0.616 and a relative viability ([18]; first compound 0.02 µM) of 0.702. The relative viability ([18]; first compound 0.2 µM) was 0.627, the relative viability ([18]; first compound 0.6325 µM) was 0.603 and the relative viability ([18]; first compound 2 µM) was 0.554. For the same compound, the relative viability ([19]; first compound 0.02 µM) was 0.797, the relative viability ([19]; first compound 0.2 µM) was 0.585 and the relative viability ([19]; first compound 0.6325 µM) was 0.684. For the same compound, the relative viability ([19]; first compound 2 µM) was 0.539, the relative viability ([20]; first compound 0.02 µM) was 0.952 and the relative viability ([20]; first compound 0.2 µM) was 0.79. The relative viability ([20]; first compound 0.6325 µM) was 0.928, the relative viability ([20]; first compound 2 µM) was 0.767 and the relative viability ([21]; first compound 0.02 µM) was 0.721. It also gave a relative viability ([21]; first compound 0.2 µM) of 0.568, a relative viability ([21]; first compound 0.6325 µM) of 0.75 and a relative viability ([21]; first compound 2 µM) of 0.675. It also gave a relative viability ([22]; first compound 0.02 µM) of 0.417, a relative viability ([22]; first compound 0.2 µM) of 0.409 and a relative viability ([22]; first compound 0.6325 µM) of 0.366. The relative viability ([22]; first compound 2 µM) was 0.175.
`CN1CCN(CCOc2cc(OC3CCOCC3)c3c(Nc4c(Cl)ccc5c4OCO5)ncnc3c2)CC1` [Saracatinib] + COc1cc2c(Oc3ccc(NC(=O)C4(C(=O)Nc5ccc(F)cc5)CC4)cc3F)ccnc2cc1OCCCN1CCOCC1 [Foretinib] (partner 0.25 µM) was tested, and the relative viability ([1]; first compound 0.02 µM) was 0.997, the relative viability ([1]; first compound 0.2 µM) was 1.09 and the relative viability ([1]; first compound 0.6325 µM) was 1.41. For the same compound, the relative viability ([1]; first compound 2 µM) was 0.537, the relative viability ([2]; first compound 0.02 µM) was 1.03 and the relative viability ([2]; first compound 0.2 µM) was 0.94. The relative viability ([2]; first compound 0.6325 µM) was 0.98, the relative viability ([2]; first compound 2 µM) was 0.658 and the relative viability ([3]; first compound 0.02 µM) was 1.17. It also gave a relative viability ([3]; first compound 0.2 µM) of 1.02, a relative viability ([3]; first compound 0.6325 µM) of 1.13 and a relative viability ([3]; first compound 2 µM) of 1.16. It also gave a relative viability ([4]; first compound 0.02 µM) of 0.94, a relative viability ([4]; first compound 0.2 µM) of 0.772 and a relative viability ([4]; first compound 0.6325 µM) of 0.798. It also gave a relative viability ([4]; first compound 2 µM) of 0.533, a relative viability ([5]; first compound 0.02 µM) of 0.534 and a relative viability ([5]; first compound 0.6325 µM) of 0.678. For the same compound, the relative viability ([5]; first compound 2 µM) was 0.413, the relative viability ([6]; first compound 0.02 µM) was 0.753 and the relative viability ([6]; first compound 0.6325 µM) was 0.707. The relative viability ([6]; first compound 2 µM) was 0.476, the relative viability ([7]; first compound 0.02 µM) was 0.692 and the relative viability ([7]; first compound 0.2 µM) was 0.625. The relative viability ([7]; first compound 0.6325 µM) was 0.696, the relative viability ([7]; first compound 2 µM) was 0.552 and the relative viability ([8]; first compound 0.02 µM) was 0.896. For the same compound, the relative viability ([8]; first compound 0.6325 µM) was 0.844, the relative viability ([8]; first compound 2 µM) was 0.531 and the relative viability ([9]; first compound 0.02 µM) was 1.02. For the same compound, the relative viability ([9]; first compound 0.2 µM) was 0.882, the relative viability ([9]; first compound 0.6325 µM) was 1.06 and the relative viability ([9]; first compound 2 µM) was 0.867. The relative viability ([10]; first compound 0.02 µM) was 0.973, the relative viability ([10]; first compound 0.2 µM) was 1.04 and the relative viability ([10]; first compound 0.6325 µM) was 1.09. The relative viability ([10]; first compound 2 µM) was 0.816, the relative viability ([11]; first compound 0.02 µM) was 1.01 and the relative viability ([11]; first compound 0.2 µM) was 0.8. It also gave a relative viability ([11]; first compound 0.6325 µM) of 1.01, a relative viability ([11]; first compound 2 µM) of 0.704 and a relative viability ([12]; first compound 0.02 µM) of 1.02. The relative viability ([12]; first compound 0.2 µM) was 0.948, the relative viability ([12]; first compound 0.6325 µM) was 0.993 and the relative viability ([12]; first compound 2 µM) was 0.45. For the same compound, the relative viability ([13]; first compound 0.02 µM) was 0.924, the relative viability ([13]; first compound 0.2 µM) was 0.782 and the relative viability ([13]; first compound 0.6325 µM) was 0.76. The relative viability ([13]; first compound 2 µM) was 0.649, the relative viability ([14]; first compound 0.02 µM) was 0.997 and the relative viability ([14]; first compound 0.2 µM) was 1.14. For the same compound, the relative viability ([14]; first compound 0.6325 µM) was 1.04, the relative viability ([14]; first compound 2 µM) was 1.12 and the relative viability ([15]; first compound 0.02 µM) was 0.852. For the same compound, the relative viability ([15]; first compound 0.6325 µM) was 0.805, the relative viability ([15]; first compound 2 µM) was 0.605 and the relative viability ([16]; first compound 0.02 µM) was 0.986. The relative viability ([16]; first compound 0.2 µM) was 0.721, the relative viability ([16]; first compound 0.6325 µM) was 0.612 and the relative viability ([16]; first compound 2 µM) was 0.209. For the same compound, the relative viability ([17]; first compound 0.02 µM) was 1.09, the relative viability ([17]; first compound 0.2 µM) was 1.09 and the relative viability ([17]; first compound 0.6325 µM) was 1.07. For the same compound, the relative viability ([17]; first compound 2 µM) was 0.99, the relative viability ([18]; first compound 0.02 µM) was 1.16 and the relative viability ([18]; first compound 0.2 µM) was 0.752. For the same compound, the relative viability ([18]; first compound 0.6325 µM) was 1, the relative viability ([18]; first compound 2 µM) was 0.693 and the relative viability ([19]; first compound 0.02 µM) was 1.14. The relative viability ([19]; first compound 0.2 µM) was 0.975, the relative viability ([19]; first compound 0.6325 µM) was 1.12 and the relative viability ([19]; first compound 2 µM) was 1.05. For the same compound, the relative viability ([20]; first compound 0.02 µM) was 1.05, the relative viability ([20]; first compound 0.2 µM) was 1.05 and the relative viability ([20]; first compound 0.6325 µM) was 1.12. The relative viability ([20]; first compound 2 µM) was 0.96, the relative viability ([21]; first compound 0.02 µM) was 0.905 and the relative viability ([21]; first compound 0.2 µM) was 0.917. The relative viability ([21]; first compound 0.6325 µM) was 0.87, the relative viability ([21]; first compound 2 µM) was 0.886 and the relative viability ([22]; first compound 0.02 µM) was 0.866. It also gave a relative viability ([22]; first compound 0.6325 µM) of 0.268 and a relative viability ([22]; first compound 2 µM) of 0.401.
